Assay results published in patent publication US7879566B2, “Methods for the identification of modulators of OSGPR114 or OSGPR78 activity, and their use in the treatment of disease” (OSI Pharmaceuticals, Inc., priority 2003, dated 2011).

Experiments:
[1] = biological target: T1, OSGPR114 (Homo sapiens, UniProt Q9H1C0); assay: Yeast Fus1p-LacZ β-galactosidase reporter assay, OSGPR114-transformed yeast; format: cell-based; details: for effect on fluorescence (β-galactosidase reporter): yeast transformed with OSGPR114
T1 construct: expressed in transfected cells; host or cells: engineered yeast (GPA1 replaced by G-alpha chimeras, STE3 deleted; Fus1p-LacZ reporters)
Description: (§1) The yeast cell-based reporter assays have previously been described in the literature (e.g. see Miret J. J., et. al. (2002) J. Biol. Chem. 277:6881-6887; Campbell R. M., et. al. (1999) Bioorg Med. Chem. Lett. 9:2413-2418; King K., et. al. (1990) Science. 250:121-123); WO 99/14344; WO 00/12704; and U.S. Pat. No. 6,100,042). Briefly, yeast cells have been engineered such that the endogenous yeast G-alpha (GPA1) has been deleted and replaced with G-protein chimeras constructed using multiple techniques. Additionally the endogenous yeast alpha-cell GPCR, STE3 has been deleted to allow for a […] expression of a mammalian GPCR of choice. In the yeast, elements of the pheromone signaling transduction pathway, which are conserved in eukaryotic cells (for example, the mitogen-activated protein kinase pathway), drive the expression of Fus1. By placing β-galactosidase (LacZ) under the control of the Fus1 promoter (Fus1p), a system has been developed whereby receptor activation leads to an enzymatic read-out. Different yeast strains (e.g. FIG. 6) denote the presence of different G-alpha chimeras (see “yeast reporter assays” in Results section below for definitions).
(§2) Yeast cells are transformed by an adaptation of the Lithium acetate method described by Agatep et.al. (Agatep, R., et. al. (1998) Transformation of Saccharomyces cerevisiae by the lithium acetate/single-stranded carrier DNA/polyethylene glycol (LiAc/ss-DNA/PEG) protocol. Technical Tips Online, Trends Journals, Elsevier). Briefly, yeast cells are grown overnight on yeast tryptone plates (YT). Carrier single-stranded DNA (10 μg), 2 μg of each of two Fus1p-LacZ reporter plasmids (one with URA3 selection marker and one with TRP1), 2 μg of OSGPR114 or OSGPR78 in yeast expression vector (2p origin of replication) and a lithium acetate/polyethylene glycol/TE buffer is pipetted into an Epindorf tube. The yeast expression plasmid containing the receptor/no receptor control has a LEU2 marker. Yeast cells are inoculated into this mixture and the reaction proceeds at 30° C. for 60 minutes. The yeast cells are then heat-shocked at 42° C. for 15 minutes. The cells are then washed and spread on selection plates. The selection plates are synthetic defined yeast media minus LEU, URA and TRP (SD-LUT). After incubating at 30° C. for 2-3 days, colonies that grow on the selection plates are then tested in the LacZ assay.
(§3) In order to perform fluorometric enzyme assays for β-galactosidase, yeast cells were grown overnight in liquid SD-LUT media to an unsaturated concentration (i.e. the cells are still dividing and have not yet reached stationary phase). They are diluted in fresh media to an optimal assay concentration and 90 μL of yeast cells were added to 96-well black polystyrene plates (Costar). Compounds, dissolved in ethanol and diluted in a 1% BSA solution to 10× concentration, were added to the plates and the yeast are placed at 30° C. for 4 h. After 4 h, the substrate for the β-galactosidase is added to each well: The substrate may yield a fluorescent or calorimetric read-out upon the activity of the β-galactosidase. In these experiments, Fluorescein di(β-D-galactopyranoside) was used (FDG), a substrate for the enzyme that releases fluorescein, allowing a fluorometric read-out. 20 μL of 500 μM FDG was used. After incubation of the cells with the substrate for 30-60 mins, 20 μL of 1 M sodium carbonate is added to terminate the reaction and enhance the fluorescent signal. The plates were then read in a fluorometer at 485/535 nm. As an alternate read-out system, the yeast are also engineered with a Fus1p-HIS gene which means that activation of the receptor can also be measured through the growth of the yeast in a […] media.

[2] = biological target: T2, OSGPR78 (Homo sapiens, UniProt P43657, I33V); assay: Yeast Fus1p-LacZ β-galactosidase reporter assay, OSGPR78-transformed yeast; format: cell-based; details: yeast transformed with OSGPR78
T2 construct: expressed in transfected cells; host or cells: engineered yeast (GPA1 replaced by G-alpha chimeras, STE3 deleted; Fus1p-LacZ reporters)
T2 sequence (P43657 1-344 I33V): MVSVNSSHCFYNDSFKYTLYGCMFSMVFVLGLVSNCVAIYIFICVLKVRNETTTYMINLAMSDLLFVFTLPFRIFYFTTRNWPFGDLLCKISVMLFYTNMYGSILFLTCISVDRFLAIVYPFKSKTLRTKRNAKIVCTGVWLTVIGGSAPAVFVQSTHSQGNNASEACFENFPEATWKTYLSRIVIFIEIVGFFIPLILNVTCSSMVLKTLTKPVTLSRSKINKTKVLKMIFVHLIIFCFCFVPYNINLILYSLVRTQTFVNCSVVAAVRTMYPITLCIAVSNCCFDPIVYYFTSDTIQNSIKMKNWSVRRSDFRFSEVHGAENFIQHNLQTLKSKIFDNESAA
Description: as §1, §2, §3

[3] = system: vector transformed yeast cells; assay: Yeast Fus1p-LacZ reporter assay, vector control (no receptor); format: cell-based; details: vector controls, same yeast strains
Description: as §1, §2
as §3, with “Compounds, dissolved in ethanol and diluted in a 1% BSA solution to 10× concentration, were added to the plates and the yeast are placed at 30° C. for 4 h.” left out, “20 μL of 500 μM FDG was used. After incubation of the cells with the substrate for 30-60 mins, 20 μL of 1 M sodium carbonate is added to terminate the reaction and enhance the fluorescent signal.” left out

[4] = biological target: T1, OSGPR114; assay: [35S]-GTPγS binding, CHO-OSGPR114 membranes; format: biochemical; details: CHO-OSGPR114 versus CHO membranes
Procedure: For example, in one method employed herein, membranes from untransfected CHO cells as well as OSGPR114 stable clones were prepared using the method described by Griffin et al (1998). Membranes were homogenized in buffer containing 50 mM Tris, 3 mM MgCl2, 100 mM NaCl, 1 mM EDTA, 1 uM GDP, 0.1% fatty acid free BSA, 0.01% Saponin, pH 7.4. Assays were carried out in a reaction mixture containing 50 mL of membrane suspension (5 mg/well), 50 mL of [^35S]-GTPgS binding (final concentration 0.5 nM: 50 mL aliquot counted to determine precise concentration employed) and either 50 mL of assay buffer, 50 mL of unlabeled GTPgS (defining nonspecific binding:final concentration is 10 mM) or 50 mL of each concentration of LPA. Incubations were carried out in triplicate for 60 minutes at 37° C. Reactions were terminated by rapid filtration over GF/B filters presoaked in ice cold wash buffer for 90 minutes. The filters were then washed 6 times with 0.3 mL of ice cold wash buffer (50 mM Tris, 5 mM MgCl2, pH 7.4). The filters were dried, covered with Microscint-20, dark adapted for 5 minutes, and counted on a 2 minute [^35S] protocol on a Packard TopCount LSC.

[5] = biological target: endogenous CHO receptor; assay: [35S]-GTPγS binding, parental CHO membranes; format: biochemical, hamster; details: 1 nM to 300 nM applied
Procedure: For example, in one method employed herein, membranes from untransfected CHO cells as well as OSGPR114 stable clones were prepared using the method described by Griffin et al (1998). Membranes were homogenized in buffer containing 50 mM Tris, 3 mM MgCl2, 100 mM NaCl, 1 mM EDTA, 1 uM GDP, 0.1% fatty acid free BSA, 0.01% Saponin, pH 7.4. Assays were carried out in a reaction mixture containing […], 50 mL of [^35S]-GTPgS binding (final concentration 0.5 nM: 50 mL aliquot counted to determine precise concentration employed) and either 50 mL of assay buffer, 50 mL of unlabeled GTPgS (defining nonspecific binding:final concentration is […]) or 50 mL of each concentration of LPA. Incubations were carried out in triplicate for 60 minutes at 37° C. Reactions were terminated by rapid filtration over GF/B filters presoaked in ice cold wash buffer for 90 minutes. The filters were then washed 6 times with 0.3 mL of ice cold wash buffer (50 mM Tris, 5 mM MgCl2, pH 7.4). The filters were dried, covered with Microscint-20, dark adapted for 5 minutes, and counted on a 2 minute [^35S] protocol on a Packard TopCount LSC.

[6] = biological target: T1, OSGPR114; assay: FLIPR intracellular calcium assay, CHO-OSGPR114 cells; format: cell-based; details: co-addition with LPA
Procedure: For example, in one method employed herein, CHO and CHO-114 cells were seeded at a concentration of 50K cells/well in […] growth media in clear, flat-bottom 96-well black assay plates and incubated overnight at 37 C. The growth media is aspirated from the cells and a dye solution ([…]) added to each well. The dye solution consists of 2 mM probenecid, 2 mM HBSS, […] in a growth media minus antibiotics solution. The cells are loaded with the dye for 1 h at 37 C before aspiration and rinsing with wash buffer (20 mM HBSS+2 mM Probenecid). Compound plates are then prepared with 4× compound/control. 150 ul of wash buffer is added to each well. Once the FLIPR is fully calibrated, compound is added to the plate and the release of calcium measured using 0.4 exposure length and a laser set at 0.3W.

T1 sequence (Q9H1C0 whole entry): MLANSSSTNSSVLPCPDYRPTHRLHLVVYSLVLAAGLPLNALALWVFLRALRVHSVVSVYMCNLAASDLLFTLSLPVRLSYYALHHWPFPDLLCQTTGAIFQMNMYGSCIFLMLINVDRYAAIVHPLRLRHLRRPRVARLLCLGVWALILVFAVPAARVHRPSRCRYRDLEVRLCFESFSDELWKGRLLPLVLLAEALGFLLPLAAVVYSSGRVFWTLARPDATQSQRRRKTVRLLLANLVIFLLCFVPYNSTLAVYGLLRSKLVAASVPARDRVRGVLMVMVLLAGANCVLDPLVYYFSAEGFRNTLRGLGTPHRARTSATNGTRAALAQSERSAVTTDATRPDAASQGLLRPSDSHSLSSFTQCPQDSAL

Molecule | effect on fluorescence (β-galactosidase reporter) [1] | effect on fluorescence (β-galactosidase reporter) [2] | response in yeast G-alpha chimera strains ([1]; chimeras of Galpha q (20156) and Galphas (20202)) | response in vector transformed yeast cells [3] | response in vector transformed yeast cells ([3]; listed as oleoyl LPA) | Emax, GTPγS binding [4] | EC50 [5] [nM] | effect of co-addition on LPA calcium response [6]
Nc1ncnc2c1ncn2[C@@H]1O[C@H](COP(=O)(O)OP(=O)(O)O)[C@@H](O)[C@H]1O [ADP] | no effect | no effect | – | – | – | – | – | –
Nc1ncnc2c1ncn2[C@@H]1O[C@H](COP(=O)(O)OP(=O)(O)OP(=O)(O)O)[C@@H](O)[C@H]1O [ATP] | no effect | no effect | – | – | – | – | – | –
CCCCCCCCC=CCCCCCCCC(=O)OCC(O)COP(=O)(O)O (centres unmarked) [Oleoyl LPA, oleoyl lysophosphatidic acid] | increase in fluorescence | increase in fluorescence | could produce a response | not in vector transformed cells | did not respond | comparable Emax values | 768 | –
CCCCCCCCCCCCCC(=O)OC[C@@H](O)COP(=O)(O)O [myristoyl LPA, myristoyl lysophosphatidic acid] | increase in fluorescence | increase in fluorescence | – | not in vector transformed cells | – | – | – | –
CCCCCCCCCCCCCCCC(=O)OC[C@@H](O)COP(=O)(O)O [palmitoyl LPA, palmitoyl lysophosphatidic acid] | increase in fluorescence | increase in fluorescence | – | not in vector transformed cells | – | – | – | –
CCCCCCCCCCCCCCCCCC(=O)OC[C@@H](O)COP(=O)(O)O [stearoyl LPA, stearoyl lysophosphatidic acid] | increase in fluorescence | increase in fluorescence | – | not in vector transformed cells | – | – | – | –
pertussis toxin | – | – | – | – | – | – | – | completely abolished this effect
platelet-activating factor [PAF] | no effect | no effect | – | – | – | – | – | –
